Source: EP0719267B1, “SECOND MESSENGER CELL SIGNALING INHIBITORS” (CELL THERAPEUTICS, INC., priority 1993, dated 1994)
Blank lines part the entries; values can stand above or below the molecule they belong to.

Columns and labels:
[1] = test system: murine cytotoxic T-cell line, CT6; experiment: Cytokine-induced proliferation of the cytotoxic T-cell line CT6 / CT-6.1; type: cell-based; details: added one hour prior to IL-2, thymidine at 48 hours
Protocol: Another assay in this example was used to determine inhibitive activity of the inventive compounds on direct IL-2-induced proliferation in a murine cytotoxic T-cell line, CT6. The CT6 cell line is an IL-2-dependent cell line. IL-2 was removed from the medium for 24 hours prior to stimulation. […] 49, 50, 45, 43 or 41 were added at various concentrations. The cells were stimulated with IL-2 and amount of tritiated thymidine dye incorporated was measured 48 hours later.
In another related assay, inhibitory effects on CT6 cell proliferation is examined. CT6 cells are a murine IL-2 dependent, cytotoxic T cell line that proliferate in response to murine IL-2 (15 U/ml).
CT-6.1 cells were starved overnight and stimulated with IL-2 (20 ng/ml). Twenty hours later, cells were labeled for 4 hours with ^3H-TdR and counted by liquid scintillation.
CT6.1 cells were cultured with IL-2 with or without the addition of inventive compound no. 45 (2 µM) and viable cells counted for up to 8 days. On day 4, two cultures previously incubated with compound no. 45, were washed and recultured with fresh IL-2 with or without compound no. 45 (2 µM).
Procedurally, CT-6.1 cells were starved overnight and stimulated with either IL-2 (20 ng/ml), IL-4 (50 ng/ml) or IL-7 (25 ng/ml). ^3H-TdR was added at 20 hours, cells were harvested 4 hours later, and the incorporation of ^3H-TdR was determined.

Balb/3T3 cells = experiment: PDGF-induced proliferation of Balb/3T3 cells; type: cell-based, murine
Protocol: Balb/3T3 cells respond vigorously to PDGF stimulation, and are useful in vitro models for further study of PDGF-induced proliferation. Disregulated PDGF-proliferative response has been linked to a variety of diseases, including, e.g., restenosis, atherosclerosis, fibrosis, and tumor cell angiogenesis. Cells were plated in low serum-containing medium for 24 hours prior to stimulation with various concentrations of inventive compound no. 45. PDGF-BB was added at constant 10 µM concentrations. Tritiated thymidine was added and cells harvested for scintillation counting 24 hours later. Figure 15 illustrates a dose response curve from this assay, including an IC50 value of approximately 0.08 µM, exemplifying inhibitory activity of the tested compound.
In another investigation similar to the Balb/3T3 proliferation assay of Example 32, IC50 and ID50 values for inventive compounds nos. 70, 45, 59 and 58 were determined. LD50 values were determined using a cytotoxicity assay, as in Example 32. In these assays, Balb/3T3 cells, stimulated with PDGF and treated with one of the above inventive compounds in a manner identical to the tritiated thymidine procedure above, were incubated instead with a viable dye BCECF, a fluorescent dye. Fluorescence was measured using a fluorescent plate reader. […] Figure 17 illustrates assay results by comparing […] value against LD50 values for the inventive compounds tested. Most compounds tested were non-cytotoxic yet were significant inhibitors of proliferation.
Inventive compounds nos. 77,7 and 78 were added at various concentrations one hour prior to PDGF stimulation. PDGF-BB was added at a constant 10 µM concentrations along with tritiated thymidine. The cells were allowed to incubate for one day, following addition of PDGF and tritiated thymidine. 24 Hours later, the cells were harvested and counted by liquid scintillation counting. Results for compounds nos.77, 7 and 78 are shown in figures 26A, 26B and 26C, respectively. Background counts were approximately 1% of control levels.
Results obtained for compound no. 50 in the PDGF-induced proliferation of Balb/3T3 cells (Example 32), reported in figure 28, illustrate the inhibitive properties of this compound on proliferation induced by PDGF, representing significant inhibition at concentrations as low as 2 µM. […] 50, are capable of reducing tumor cell growth by blocking oncogene-induced events.
Figure 66 reports that inventive compound no. 45 inhibited PDGF-induced murine BALB/3T3 proliferation. Procedurally, cells were rested overnight in 0.2% serum and stimulated with 25 ng/ml PDGF. Compound no. 45 was added 1 hour prior to stimulation. Cells were pulsed with ^3H-TdR 24 hours later and harvested for scintillation counting 4 hours later.
Figures 66A and 66B are a dose response and cytoxicity curves, respectively, for inhibition of proliferation in Balb/3T3 cells by inventive compound no. 58. In the assay protocol, cells were starved overnight in 0.5% serum containing medium, followed by stimulation with 20 ng/ml PDGF for 24 hours. The cells were labeled with ^3H-TdR for 4 hours and harvested and counted by scintillation. Figure 66B illustrates that inventive compound no.
Figure 68 illustrates an effect of the delayed addition of inventive compound no. 58 to Balb/3T3 proliferation in response to PDGF-BB. Cells were stimulated with PDGF (20 ng/ml) and inventive compound no. 58 added either simultaneous with PDGF (0) or at various times after addition of PDGF, up to 6 hours later. At 24 hours, the cells were pulsed with ^3H-TdR and counted by scintillation four hours later. […] 58 was added as late as 20 hours after PDGF.
Figure 69 illustrates that inventive compound no. […] In the assay protocol, cells were serum starved for 24 hours before adding either 20 ng/ml PDGF or 10% serum. The cells were pulsed with ^3HTdR 24 hours later. Inventive compound no.

[2] = test system: murine thymocyte proliferation; experiment: Thymocyte proliferation co-stimulated by ConA and IL-2 (tritiated thymidine); type: cell-based, Balb/C mice; details: Mus musculus, Thymocyte, 96 h; ConA and IL-2 (15 U/ml), 4 days
Protocol: (§1) ConA, used to activate CD3, induces T-cell proliferation and differentiation. Thymuses, obtained from normal, female Balb/C mice, were dissociated and plated into 96-well plates at a density of 2 x 10^5 cells/well. ConA (0.25 mg/ml) and IL-2 (15 U/ml) were added to the wells. The cells were incubated for 4 days at 37°C. On day 4, the cells were pulsed with tritiated thymidine and incubated for an additional 4 hours. The amount of tritiated thymidine dye incorporated by the harvested cells was determined in a liquid scintillation counter. Drug doses (shown in figs. 1A and 1B) were added two hours prior to ConA and IL-2 activation.
as §1, with “Thymuses,” for “ConA, used to activate CD3, induces T-cell proliferation and differentiation. Thymuses,”, “37 °C.” for “37°C.”, “Doses” for “Drug doses”, “26A, 26B” for “1A”, “26C)” for “1B)”
In another in vitro protocol, thymocyte proliferation was induced by sub-mitogenic doses of Con A (0.25 µg/ml) and IL-2 (20 ng/ml). Cells were stimulated for 96 hours, prior to addition of ^3H-TdR for 4 hours. The cells were harvested and incorporation of ^3H-TdR was determined.
45 on co-stimulated thymocyte proliferation. In an assay procedure, murine thymocytes were stimulated with ConA and IL-2 with 1 µM compound no. 45 added either 1 hour prior to IL-2 (-1), simultaneous with IL-2 (0) or at various times following IL-2 addition (1-92 hour). At 92 hours the thymocytes were pulsed with ^3H-TdR, harvested and counted by scintillation 4 hours later.

CMV promoter activity = experiment: microbe, parasite or virus in culture; type: cell-based; details: transformed (adenovirus) cells
Excerpt: This example illustrates data of proliferative activity of various inventive compounds for inducing CMV promoter activity. The CMV promoter assay measures gene transcription and translation activity wherein any active compounds will have cytotoxic activity for inhibiting cellular protein synthesis in transformed (adenovirus) cells. Compound no. […]

mast cell degranulation = experiment: Serotonin release assay for inhibition of mast cell degranulation; type: cell-based; details: Concentration 50 µM
Excerpt: This assay provides an in vitro model for an allergy and asthma therapeutic product. […]

[3] = test system: proliferative PMBC response to allogeneic stimulation; experiment: Two-way mixed lymphocyte reaction; type: cell-based; details: Lymphocyte; figs. 2A-2C
Excerpt: This example illustrates therapeutic potential for various autoimmune and inflammatory diseases of the inventive compounds by comparing potency (inhibitive activity) with cytotoxicity data obtained using the following indicative assay procedures. In a mixed lymphocyte reaction assay of compounds nos. […] Compounds nos. […] 2A and 2B. Both compounds nos. […] 2C.
Compound no. […] Compound no.

Human stromal cells = experiment: Stromal cell proliferation in response to PDGF-BB; type: cell-based; details: 50 ng/ml PDGF-BB
Protocol: This assay is useful for predicting therapeutic activity for preventing or treating restenosis, atherosclerosis and coronary artery disease. Human stromal cells were starved in serum-free media for one day and then stimulated with 50 ng/ml PDGF-BB. Inventive compounds, at various concentrations, were added one hour prior to PDGF stimulation. PDGF and tritiated thymidine were added and the cells allowed to incubate for one day, following addition of the PDGF and thymidine. 24 Hours later, the cells were harvested and counted by liquid scintillation counting. Results for compounds nos. Background counts (i.e., starved cells) were approximately 1% of control levels. […] 30, 28, 29, 32 and 31, respectively.

[4] = test system: THP-1 cell adhesion to IL-1-activated HUVEC; experiment: THP-1 cell adhesion to activated HUVEC; type: cell-based, human; details: IL-1 (10 ng/ml), 8 hours
Protocol: This example illustrates inhibitive activity of compounds nos. 50 and 57 on THP-1 cell adhesion to IL-1-activated HUVEC. In an investigative assay, HUVEC were stimulated with IL-1 (10 ng/ml), both in the absence and presence of varying concentrations of drugs for 8 hours in a 96-well microtiter plate. In the wellplate, human monocytic leukemia cell line THP-1 cells were added at 50,000 cells per well. The THP-1 cells were pre-incubated with BCECF, a fluorescence dye that can be used to measure cell number using a fluorescence plate reader. After 10 minutes at 37 °C, the microtiter plate was inverted and spun at 900 rpm. The remaining adhering THP-1 cells were then analyzed.
Inventive compound no. […] HUVEC were stimulated with 20 ng/ml IL-1β or 15 ng/ml TNFα for 6 hours. Fluorescence labeled (BCECF-AM) THP-1 cells were allowed to adhere to the HUVEC for 20 minutes, washed once and the amount of fluorescence remaining analyzed on a fluorescence plate reader. The results, reported in figures 62A and 62B (TNFα or IL-1β, respectively), show inhibition of THP-1 adhesion to HUVEC.
Figures 72A and 72B illustrate that inventive compound no. 58 inhibited THP-1 cell adhesion to either TNF or IL-1-stimulated HUVEC, respectively. Procedurally, HUVEC were stimulated with TNF or IL-1 for 8 hours and THP-1 cells added for 20 minutes. The HUVEC were then washed and analyzed for adherence. Inventive compound no. 58 inhibited adhesion of THP-1 cells to HUVEC with an IC50 of approximately 1 µM for both TNF and IL-1.

Compound: CCCCCCCCCCCCCCNCC(O)CCCCCCCn1c(=O)c2c(ncn2C)n(C)c1=O (stereo not drawn) [compound 43, 1-(9-Tetradecylamino-8-hydroxynonyl)-3,7-dimethylxanthine]
- inhibition of direct IL-2-induced proliferation [1]: inhibited direct IL-2-induced CT6 proliferation

Compound: CCCCCCCCNCC(O)CCCCCCCCCN(C)C(C)=O (stereo not drawn) [compound no. 77]
- inhibition of PDGF-induced proliferation (Balb/3T3 cells): inhibit Balb/3T3 proliferation

Compound: CCCCCCCCNCC(O)CCCCCCCCC(=O)NC (stereo not drawn) [compound 79, 11-Octylamino-10-hydroxyundecanoic acid N-methyl amide]
- IC50 [2]: 10.6 µM

Compound: CCCCCCCCCCNCC(O)CCCCCCCn1c(=O)c2c(ncn2C)n(C)c1=O (stereo not drawn) [compound 41, 1-(9-Decylamino-8-hydroxynonyl)-3,7-dimethylxanthine]
- inhibition of direct IL-2-induced proliferation [1]: inhibited direct IL-2-induced CT6 proliferation

- IC50 (CMV promoter activity): > 500 µM
Compound: CCCNCC(O)CCCCn1c(=O)ccn(C)c1=O (stereo not drawn) [compound no. 19, 3-(5-hydroxy-6-(N-propyl)aminohexyl)-1-methyluracil]
- % Inhibition (mast cell degranulation): inactive

Compound: CCCCCCCCNCC(O)CCCCCCCCC(=O)O (stereo not drawn) [compound 78, 11-Octylamino-10-hydroxyundecanoic acid]
- inhibition of PDGF-induced proliferation (Balb/3T3 cells): inhibit Balb/3T3 proliferation
- IC50 [2]: 12.4 µM

Compound: CCCCCCCCNCC(O)CCCCCCCCCO (stereo not drawn) [compound no. 7, 1-Octylamino-2,11-undecadiol]
- inhibition of PDGF-induced proliferation (Balb/3T3 cells): inhibit Balb/3T3 proliferation

- IC50 (CMV promoter activity): > 500 µM
Compound: CCCNCC(O)CCCCn1c(=O)c(C)cn(C)c1=O (stereo not drawn) [compound no. 26, 3-(6-Propylamino-5-hydroxyhexyl)-1-methylthymine]
- IC50 [3]: > 250 µM

- IC50 (CMV promoter activity): > 100 µM
Compound: Cn1cnc2c1c(=O)n(CCCCC(O)CNCC1CCCCC1)c(=O)n2C (stereo not drawn) [compound no. 31, 1-(5-hydroxy-6-(N-cyclohexylmethyl)aminohexyl)-3,7-dimethylxanthine]
- IC50 (Human stromal cells): > 50 µM

- IC50 (CMV promoter activity): > 500 µM
Compound: CCCNCC(O)CCCCNC(=O)CCCC(=O)NCCC (stereo not drawn) [compound no. 5, N^2-(5-hydroxy-6-(N^3-propyl)aminohexyl)-(N^1-propyl)glutaric acid]
- IC50 [3]: > 250 µM

Compound: Cn1cnc2c1c(=O)n(CCCCCCCCCC(O)CNCc1ccc(N)cc1)c(=O)n2C (stereo not drawn) [compound 57, 1-[11-(4-Aminobenzylamino)-10-hydroxyundecyl]-3,7-dimethylxanthine]
- inhibition of THP-1 adhesion [4]: significantly inhibited THP-1 adhesion, even at low concentratations

- IC50 (CMV promoter activity): > 100 µM
Compound: Cn1cnc2c1c(=O)n(CCCCC(O)CNCCCCc1ccccc1)c(=O)n2C (stereo not drawn) [compound no. 29, 1-(5-hydroxy-6-(N-(4-phenyl)butyl)aminohexyl)-3,7-dimethylxanthine]
- IC50 (Human stromal cells): 40 µM

Compound: CCCCCCCCNCC(O)CCCCCCCCC(=O)N(C)C (stereo not drawn) [compound 80, 11-Octylamino-10-hydroxyundecanoic acid N,N-dimethyl amide]
- IC50 [2]: 3.8 µM

- IC50 (CMV promoter activity): > 100 µM
Compound: Cn1cnc2c1c(=O)n(CCCCC(O)CNCCCCCCO)c(=O)n2C (stereo not drawn) [compound no. 32, 1-(5-hydroxy-6-(N-(6-hydroxy)hexyl)aminohexyl)-3,7-dimethylxanthine]
- IC50 (Human stromal cells): > 50 µM
